Like-named read-outs stand apart in the source and are kept apart here.
Tests used:
[1] = molecular target: T1, YTH domain of the YTHDC1 protein (Homo sapiens, UniProt Q96MU7); assay: Tryptophan fluorescence quenching assay; format: binding
T1 construct: made in house
Description: (§1) Fluorescence was measured using a Tecan Infinite 200 Microplate reader (Tecan Group Ltd.), setting the […] wavelength at 288 nm and collecting the emission data at 330 nm.

YTHDF1 YTH domain [2] = molecular target: T2, YTHDF1 YTH domain (Homo sapiens, UniProt Q9BYJ9); assay: Tryptophan fluorescence quenching assay; format: binding
T2 construct: The human YTHDF1 YTH domain (amino acids 365–554, PDB: 4RCJ); host or cells: E. coli BL21(DE3)
T2 sequence (Q9BYJ9 365-554): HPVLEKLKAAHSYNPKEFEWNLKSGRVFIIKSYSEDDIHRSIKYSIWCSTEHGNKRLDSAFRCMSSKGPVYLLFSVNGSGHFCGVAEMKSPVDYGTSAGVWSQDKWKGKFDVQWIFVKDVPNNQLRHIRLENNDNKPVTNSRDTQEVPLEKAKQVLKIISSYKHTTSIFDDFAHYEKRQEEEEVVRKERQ
Description: as §1

human YTHDF2 YTH domain = molecular target: T3, human YTHDF2 YTH domain (Homo sapiens, UniProt Q9Y5A9); assay: Tryptophan fluorescence quenching assay; format: binding
T3 construct: the human YTHDF2 YTH domain (amino acids 383–553, PDB: 4WQN); made in house; host or cells: E. coli BL21(DE3)
T3 sequence (Q9Y5A9 383-553): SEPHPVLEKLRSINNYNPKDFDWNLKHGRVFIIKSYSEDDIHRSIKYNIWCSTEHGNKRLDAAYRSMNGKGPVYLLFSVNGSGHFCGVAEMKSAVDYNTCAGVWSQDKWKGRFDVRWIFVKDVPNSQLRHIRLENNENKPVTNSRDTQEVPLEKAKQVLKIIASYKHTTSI
Description: as §1

YTHDF1 domain = molecular target: T4, YTHDF1 domain (Homo sapiens, UniProt Q9BYJ9); assay: Dynamic mass redistribution (DMR), label-free; settings: immobilized YTHDF1 domain, binding at equilibrium
T4 construct: The human YTHDF1 YTH domain (amino acids 365–554, PDB: 4RCJ); host or cells: E. coli BL21(DE3)
T4 sequence (Q9BYJ9 365-554): T2 sequence (Q9BYJ9 365-554)
Description: The protein was immobilized in a final volume of 15 μL/well of a 50 μg/mL solution in 20 mM sodium acetate buffer, pH 6, onto the surface of label-free microplates by amine-coupling chemistry. Different concentrations of ebselen (300 nM to 50 μM) were added to the plate and the mass of the molecular complex was measured every minute for 1 h. […]
probe with the YTH domain of YTHDF1 calculated with the DMR. rYTH was immobilized to the wells with amino-coupled chemistry and different concentrations of RNA were added to the plate.
Measurements were performed before adding the RNA, in order to define a baseline, and after the addition. Final response (pm) was obtained by subtracting to the last measurement the baseline.
Signal for each well was obtained by subtracting the signal of a reference area with the protein coated to an uncoated one. Data were fitted according to a four-parameter nonlinear regression […]
(1 picture or pasted object on this page, not shown here)

[3] = molecular target: T5, YTH domain of YTHDF1 / biotinylated RNA probe 5′-Bi-CCGAm6ACUGUC-3′ (Homo sapiens, UniProt Q9BYJ9); assay: AlphaScreen competitive assay, saturation binding; settings: 50 nM RNA, 50 nM protein, compound 0–100 μM
T5 construct: The human YTHDF1 YTH domain (amino acids 365–554, PDB: 4RCJ); host or cells: E. coli BL21(DE3)
T5 sequence (Q9BYJ9 365-554): T2 sequence (Q9BYJ9 365-554)
Description: The Amplified Luminescent Proximity Homogeneous Assay (ALPHA Assay) was performed in white 384-well Optiplates (PerkinElmer) in a final volume of 20 μL, and it was first optimized by titrating both the protein and the biotinylated RNA probe (5′-Bi-CCGAm6ACUGUC-3′, Dharmacon) to find the appropriate right protein/RNA ratio before the saturation of the detection signal. […] Anti-His acceptor beads (PerkinElmer) (20 μg/mL final concentration) and streptavidin donor beads (20 μg/mL final concentration) were added and the reaction was incubated in the dark at room temperature for 1 h to reach equilibrium. Light signals were detected with an Enspire Multimode Plate reader (PerkinElmer). […] The IC50 of ebselen was determined from the nonlinear regression fits of the data.

[4] = tested on: m6A levels in poly(A) purified mRNA of PC-3 cells; assay: m6A level by 2D thin-layer chromatography; format: cell-based, human; settings: 24 h time frame
Description: 100 ng of the poly(A) purified RNA was used as the input. Processed samples were analyzed on glass-backed PEI-cellulose plates (MerckMillipore) as described previously. Plates were exposed to a storage phosphor screen below saturation and processed on a Typhoon NIR laser scanner (Cytiva). Quantification of individual nucleotides was done with ImageJ. The relative amount of m6A was calculated as a percent of the total A (sum of both A and m6A spot intensity).

[5] = molecular target: T6, recombinant YTH domain of the YTHDF1 protein (Homo sapiens, UniProt Q9BYJ9); assay: ESI-MS of the protein after incubation with the compound; format: binding
T6 construct: The human YTHDF1 YTH domain (amino acids 365–554, PDB: 4RCJ); host or cells: E. coli BL21(DE3)
T6 sequence (Q9BYJ9 365-554): T2 sequence (Q9BYJ9 365-554)

YTHDF1 YTH domain [6] = molecular target: T2, YTHDF1 YTH domain; assay: NMR titration (2D 1H-15N HSQC) in reducing conditions; format: binding; settings: 10 mM β-mercaptoethanol, 100 μM protein
Description: To further investigate the ligand–protein interaction in reversible conditions, the resonances of the YTHDF1 YTH domain were assigned. The protein sample was titrated with ebselen, in the presence of β-mercaptoethanol (10 mM) as a reducing agent, to prevent the covalent bond formation. The titration was monitored by NMR to map at atomic resolution the ligand-binding site on the protein surface. Increasing amounts of the ligand (12.5, 25, 50, 100, and 200 μM) were added to the protein solution during the NMR titration, and 2D ^1H–^15N heteronuclear single quantum coherence (HSQC) spectra were acquired.
The interaction of the protein with ebselen was investigated by solution NMR. 2D ^1H–^15N HSQC spectra were acquired on a spectrometer operating at 950 MHz and 298 K, on the free protein (100 μM in 20 mM Tris buffer, pH 7.5, 150 mM NaCl, 250 mM LiCl, 10 mM 2-mercaptoethanol, 0.5 mM EDTA, 0.1% NaN3, and protease inhibitors) and after the addition of increasing aliquots of a solution of the ligand in DMSO-d6 to reach the final concentrations of 12.5, 25, 50, 100, and 200 μM.

## O=c1c2ccccc2[se]n1-c1ccccc1 [Compound 1, 2-phenyl-1,2-benzisoselenazol-3(2H)-one]
[1]; listed as Ebselen
  Interaction with the YTH domain (tryptophan fluorescence, in words): cannot reduce tryptophan fluorescence
[1]; listed as ebselen
  Interaction with the YTH domain (tryptophan fluorescence, in words): did not interact
YTHDF1 YTH domain [2]; 5 μM protein, read-out: EC50 (tryptophan quenching)
  EC50: 1.63 µM
YTHDF1 YTH domain [2]; Table 1, read-out: EC50 (μM) (Tryptophan quenching)
  EC50: 1.5 ± 0.24 µM
Human YTHDF2 YTH domain
  EC50: 1660 nM
YTHDF1 domain
  EC50: 3220 nM
[3]
  IC50: 3565 ± 9 nM
[4]
  Overall m6A methylation level (in words): no significant changes
[5]; 5 μM protein, 50 μM compound, 60 min, no DTT
  Mass shift of the YTH domain (ESI-MS): 274.96 Da
[5]; in the presence of 1 mM DTT
  Mass of the YTH domain after incubation (ESI-MS, in words): matched that of the unmodified YTH domain
YTHDF1 YTH domain [6]
  Affinity constant judged from NMR titration (in words): low micromolar range
